Assay results published in patent US11168302B2, “Method for differentiation into retinal ganglion cells from stem cells” (ClavisTherapeutics, INC., priority 2014, dated 2021).
Entries after “also recorded” stand apart in the source; their conditions may differ.

Columns and labels:
[1] = test system: outward potassium current; test: Whole-cell patch clamp recording of potassium current in stem cell-derived retinal ganglion cells; format: cell-based, human; details: Protocol A, 4-AP 1 mM
AMPA receptor = test: Recording of spontaneous excitatory postsynaptic currents (sEPSCs) in stem cell-derived retinal ganglion cells; format: cell-based, human; details: H9-derived RGCs, CNQX 50 μM
[2] = test system: human pluripotent stem cell-derived retinal ganglion cell line; test: Live cell Ca2+ imaging of retinal ganglion cell line; format: cell-based; details: 1 mM glutamate stimulation; Fluo-4; passaged cell line
Protocol: For calcium imaging, cells cultured on 18 mm coverslip were washed with Tyrode's solution (119 mM NaCl, 2.5 mM KCl, 2 mM CaCl2), 2 mM MgCl2, 25 mM HEPES, 30 mM glucose, pH 7.4) twice or three times, and then cultured at 37° C. with addition of 1 μM Fluo-4-AM (Life technologies, Carlsbad, Calif., USA). After culturing for 15 min, cells were washed with Tyrode's solution for 10 min. Time differential images were obtained by using an Olympus IX-71 inverted microscope (Olympus, Tokyo, Japan) equipped with 40×(1.0 NA) oil lens and EMCCD (iXon887, Andor Technologies, Belfast, Northern Ireland) every 0.5 sec for 30 min. From the 10th image frame, cells were stimulated with 1 mM glutamate. After stimulation, cells were infused with Tyrode's solution.

[3] = test system: voltage-gated sodium channel; format: cell-based, human
[4] = test system: human embryonic stem cell-derived retinal ganglion cells; test: Differentiation by other Wnt signaling pathway and Shh receptor activators, immunofluorescence of Islet-1 and NF200; format: cell-based; details: day 39, Protocol A schedule; BIO 2 μM, Norrin 50 ng/mL, purmorphamine 1 μM, RA 500 nM
Protocol: On day 14 after induction of differentiation, retinal progenitor cells generated in Example 3 were cultured and differentiated into immature retinal ganglion cells for 3 days in a differentiation medium [DMEM/F12 (Invitrogen), 1 mM L-glutamine (Invitrogen), 0.1 mM nonessential amino acids (Invitrogen), 0.1 mM mercaptoethanol (Sigma-Aldrich), 1% B27 supplement (Invitrogen), 1% N2 supplement (Invitrogen), 10 ng/mL Noggin, 10 ng/mL IGF-1, 5 ng/mL FGF2, 50 ng/mL recombinant Wnt3a (R&D Systems)] containing 2 μM BIO (6-bromoindirubin-3′-oxime) or 50 ng/mL Norrin as the Wnt signaling pathway activator instead of 50 ng/mL recombinant Wnt3a. On day 17 after induction of differentiation, immature retinal ganglion cells thus generated were cultured and differentiated into mature retinal ganglion cells for 5 days in a differentiation medium [DMEM/F12 (Invitrogen), 1 mM L-glutamine (Invitrogen), 0.1 mM nonessential amino acids (Invitrogen), 0.1 mM mercaptoethanol (Sigma-Aldrich), 1% B27 supplement (Invitrogen), 1% N2 supplement (Invitrogen), 10 ng/mL IGF-1, 250 ng/mL recombinant Shh (R&D Systems)] containing 1 μM purmorphamine as the Shh receptor activator instead of 250 ng/mL Shh. On day 22 after induction of differentiation, the mature retinal ganglion cells were matured for 39 days using a medium prepared by adding 500 nM retinoic acid (RA) to the above differentiation medium.
The immunofluorescence assay of the cells generated by this method was performed using retinal ganglion cell markers, Islet-1 and NF200, and the results were consistent with the results of using Wnt3a and Shh (FIG. 21).

retinal ganglion cells = test: Effects of Wnt3a, Shh and RA in Protocol A differentiation, immunofluorescence assay with retinal ganglion cell-specific markers; format: cell-based, human; parameters: production of retinal ganglion cells: dose or concentration left out as unconfirmed; details: day 39
Protocol: After being blocked for 90 min, the slides in each differentiation step were incubated overnight at 4° C. with antibodies specific to cells of each differentiation step as given in Table 1. Before use, these antibodies were diluted in a PBS solution containing 1% BSA and 0.25% Triton X-100. The cells cultured on the slides in each step were washed three times for 5 min with PBS and incubated at room temperature for 2 hr with species-specific secondary antibody conjugated with Cy3 (1:800, Jackson Immunoresearch Laboratory) or Alexa488 (1:500, Invitrogen) (Table 1). A standard material suitable for the primary and the secondary antibodies was used to examine non-specific staining or interaction between the antibodies. Thereafter, the cells were washed three times for 5 min with PBS, counterstained with DAPI (4′,6-diamidino-2 phenylindole) and mounted in Vectashield (Vector Laboratories), followed by visualization under an epifluorescence microscope (Nikon Eclipse, E800, Tokyo, Japan) and a confocal microscope (Zeiss LSM510, Carl Zeiss, Inc, Thornwood, N.Y., USA). 500 cells were counted from 20 microscopic fields randomly selected at 400 magnification and evaluated for positive responses to each antibody. Positive responses to antibodies were determined after at least three evaluations.
To examine effects of each of Wnt3a, Shh and RA used in the Protocol A differentiation method during production of retinal ganglion cells, respective factors were treated according to a differentiation schedule of Protocol A, and on day 39 after induction of differentiation, an immunofluorescence assay was performed using retinal ganglion cell-specific markers (FIG. 22).

`Nc1ccncc1` [4-Aminopyridine, 4-aminopyridine] was tested, and the “fast-activating fraction of outward potassium current” value ([1]; H9-derived RGCs, day 59) was “blocked” and the “fast-activating fraction of outward potassium current” value ([1]; iPSC-derived RGCs, day 39) was “blocked”.

`N#Cc1cc2c(cc1[N+](=O)[O-])=NC(=O)C(=O)N=2` [CNQX, 6-cyano-7-nitroquinoxaline-2,3-dione] was tested, and the “appearance of sEPSCs” value (AMPA receptor; Protocol A, day 59) was “blocked” and the “appearance of sEPSCs” value (AMPA receptor; Protocol B, day 96) was “blocked”.

In the case of `N[C@@H](CCC(=O)O)C(=O)O` [glutamate], the cytoplasmic calcium level [2] is reported as “considerably increased; also recorded: considerable increase”.

With `NC1=N[C@H](O)[C@H]2[C@H]3O[C@]4(O)O[C@@H]([C@@H](O)[C@@]2(N1)[C@@H]4O)[C@]3(O)CO` [tetrodotoxin] the “fast-activating and inactivating inward sodium currents” value [3] was “completely blocked”.

In the case of `c1ccc2c(Oc3nc(Nc4ccc(N5CCOCC5)cc4)c4ncn(C5CCCCC5)c4n3)cccc2c1` [purmorphamine], the “immunofluorescence staining of Islet-1 and NF200 compared with Wnt3a and Shh” value [4] is reported as “consistent with the immunofluorescence staining results of Wnt3a and Shh”.

`O=C1Nc2cc(Br)ccc2/C1=C1/Nc2ccccc2/C1=N\O` [BIO, 6-bromoindirubin-3′-oxime] was tested, and the “immunofluorescence staining of Islet-1 and NF200 compared with Wnt3a and Shh” value [4] was “consistent with the immunofluorescence staining results of Wnt3a and Shh”.

B1: Norrin: Wnt signaling pathway activator; binds to Frizzled4 receptor (protein, UniProt Q00604 25-133, looked up)
Norrin: KTDSSFIMDSDPRRCMRHHYVDSISHPLYKCSSKMVLLARCEGHCSQASRSEPLVSFSTVLKQPFRSSCHCCRPQTSKLKALRLRCSGGMRLTATYRYILSCHCEECNS
For B1, the “immunofluorescence staining of Islet-1 and NF200 compared with Wnt3a and Shh” value [4] was “consistent with the immunofluorescence staining results of Wnt3a and Shh”.

B2: Dkkl: Wnt3a antagonist; recombinant Dickkopf-1, Wnt signaling pathway inhibitor (protein, UniProt O94907 32-266, looked up)
Dickkopf-related protein 1: TLNSVLNSNAIKNLPPPLGGAAGHPGSAVSAAPGILYPGGNKYQTIDNYQPYPCAEDEECGTDEYCASPTRGGDAGVQICLACRKRRKRCMRHAMCCPGNYCKNGICVSSDQNHFRGEIEETITESFGNDHSTLDGYSRRTTLSSKMYHTKGQEGSVCLRSSDCASGLCCARHFWSKICKPVLKEGQVCTKHRRKGSHGLEIFQRCYCGEGLSCRIQKDHHQASNSSRLHTCQRH
In the case of B2, the “production of retinal ganglion cells” value (retinal ganglion cells; instead of Wnt3a days 14 to 17, Shh and RA per schedule) is reported as “hardly produced”.

B3: Wnt3a: recombinant Wnt3a, Wnt signaling pathway activator (protein, UniProt P56704 19-352, looked up)
Protein Wnt-3a: SYPIWWSLAVGPQYSSLGSQPILCASIPGLVPKQLRFCRNYVEIMPSVAEGIKIGIQECQHQFRGRRWNCTTVHDSLAIFGPVLDKATRESAFVHAIASAGVAFAVTRSCAEGTAAICGCSSRHQGSPGKGWKWGGCSEDIEFGGMVSREFADARENRPDARSAMNRHNNEAGRQAIASHMHLKCKCHGLSGSCEVKTCWWSQPDFRAIGDFLKDKYDSASEMVVEKHRESRGWVETLRPRYTYFKVPTERDLVYYEASPNFCEPNPETGSFGTRDRTCNVSSHGIDGCDLLCCGRGHNARAERRREKCRCVFHWCCYVSCQECTRVYDVHTCK
With B3 the “caliber growth and fasciculation of axons (NF200 staining)” value (retinal ganglion cells; Protocol A schedule) was “delayed”, the “synaptogenesis and dendritic spine development (TUJ1 staining)” value (retinal ganglion cells; Protocol A schedule) was “no synaptogenesis and dendritic spine development” and the “retinal ganglion cells produced” value (retinal ganglion cells; factors treated per Protocol A schedule) was at least 80%.
